The results in this text go back to PubChem BioAssay (NCI).

Among the test systems are K-562 leukemia; NCI-H226 lung; TK-10 renal; SNB-75 CNS; SF-268 CNS; EKVX NSCLC; RXF 393 renal; HL-60(TB) leukemia; SF-539 CNS; OVCAR-4 ovarian.
Holding throughout (experiment): NCI-60 cell line screen, 48 h

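Compound exposure: 48 hours, 5 concentrations, 96-well plates. Abbreviation: GI50, concentration required for 50% inhibition of growth. At the TGI there is no net growth.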

On to `Cc1nc2c(nc1C)C(=O)c1ccccc1C2=O`, for which the TGI with K-562 leukemia came out at 32.1 µM; with NCI-H226 lung, 13.3 µM; in the assay on TK-10 renal, 79.5 µM; in the assay with SNB-75 CNS, 6.15 µM; with SF-268 CNS it was 46.3 µM; with EKVX NSCLC it was 41.5 µM. In addition, the TGI in the assay on RXF 393 renal worked out at 53.9 µM; in the assay on HL-60(TB) leukemia, 13.7 µM; in the assay with SF-539 CNS, 11.2 µM; with OVCAR-4 ovarian, 14.1 µM.

For `COc1ccc(-n2/c(=N/C(=S)N(C)C)ss/c2=N\C(=S)N(C)C)cc1`, the TGI is above 100 µM in the assay on K-562 leukemia; above 100 µM in the assay on NCI-H226 lung; above 100 µM with TK-10 renal; 52.6 µM in the assay on SNB-75 CNS; above 100 µM in the assay on SF-268 CNS; above 100 µM in the assay with EKVX NSCLC. Moreover, the TGI in the assay on RXF 393 renal was above 100 µM; in the assay with HL-60(TB) leukemia, above 100 µM; in the assay with SF-539 CNS it was above 100 µM; with OVCAR-4 ovarian, 18.5 µM.

Regarding `O=C1C2=C(SCCS2)C(=O)c2ccccc21`, the TGI turned out to be 5.14 µM in the assay on K-562 leukemia; 3.57 µM in the assay on NCI-H226 lung; 3.24 µM with TK-10 renal; 3.03 µM in the assay on SNB-75 CNS; 3.05 µM in the assay with SF-268 CNS; 2.69 µM with EKVX NSCLC. For the same compound, the TGI in the assay with RXF 393 renal was determined as 3.56 µM; in the assay on HL-60(TB) leukemia, 6.77 µM; with SF-539 CNS it was 3.09 µM; in the assay with OVCAR-4 ovarian, 3.01 µM.

For `CC(=O)N1[C@H](C(=O)O)CS[C@H]1c1ccncc1`, the TGI in the assay on K-562 leukemia, in the assay with NCI-H226 lung, in the assay with TK-10 renal, in the assay on SNB-75 CNS, in the assay with SF-268 CNS and with EKVX NSCLC was above 100 µM in each case. Moreover, the TGI in the assay with RXF 393 renal, with HL-60(TB) leukemia, with SF-539 CNS and with OVCAR-4 ovarian was above 100 µM each time.

For the compound `O=C(N/C(=C\c1cc(Cl)ccc1Cl)c1nc2[nH]c(=S)[nH]c(=O)c2[nH]1)c1ccccc1`, the TGI in the assay with K-562 leukemia was above 62.6 µM; in the assay with NCI-H226 lung, above 100 µM; in the assay with TK-10 renal, above 100 µM; in the assay with SNB-75 CNS, above 100 µM; in the assay on SF-268 CNS it was above 100 µM; with EKVX NSCLC, above 79.6 µM. The TGI was 41.5 µM with RXF 393 renal, 36.3 µM in the assay with HL-60(TB) leukemia, above 76.7 µM in the assay with SF-539 CNS and above 100 µM in the assay on OVCAR-4 ovarian.

Turning to `CCOC(=O)c1ncn2c1[nH]c(=S)c1ccccc12`, the TGI with K-562 leukemia, in the assay with NCI-H226 lung, in the assay on TK-10 renal, with SNB-75 CNS, in the assay with SF-268 CNS and in the assay on EKVX NSCLC was above 100 µM throughout. Moreover, the TGI in the assay on RXF 393 renal, in the assay on HL-60(TB) leukemia, in the assay with SF-539 CNS and with OVCAR-4 ovarian was above 100 µM each time.

In the case of `COc1ccc(/C=C\c2cc(OC)c3c(c2)OCO3)c(O)c1O`, the TGI was 27 µM in the assay with K-562 leukemia; 45.9 µM in the assay on NCI-H226 lung; above 86.6 µM with TK-10 renal; 15.5 µM in the assay with SNB-75 CNS; 18.8 µM with SF-268 CNS; 40.4 µM in the assay with EKVX NSCLC. Further, the TGI is 11.7 µM with RXF 393 renal, 7.72 µM in the assay on HL-60(TB) leukemia, 4.57 µM with SF-539 CNS and 20.6 µM in the assay on OVCAR-4 ovarian.

On to `CN(C)c1ccc(-c2cc(-c3ccc(Nc4nc(Nc5ccc(Cl)cc5)nc(Nc5ccc(Cl)cc5)n4)cc3)no2)cc1`, for which the GI50 in the assay with K-562 leukemia is 1.72 µM; with NCI-H226 lung, 20.2 µM; in the assay on TK-10 renal it was 16.3 µM; with SNB-75 CNS, 5.12 µM; in the assay on SF-268 CNS, 5.02 µM; in the assay with EKVX NSCLC it was 10.5 µM. Further, the GI50 with RXF 393 renal was 2.76 µM; in the assay with HL-60(TB) leukemia it was 2.01 µM; in the assay with SF-539 CNS it was 5.18 µM; in the assay with OVCAR-4 ovarian it was 7.19 µM. Also, the TGI in the assay on K-562 leukemia was 5.3 µM; in the assay on NCI-H226 lung, above 100 µM; in the assay on TK-10 renal it was above 100 µM; in the assay on SNB-75 CNS, 28.1 µM; in the assay with SF-268 CNS it was 21.6 µM; in the assay on EKVX NSCLC it was above 100 µM. Further, the TGI in the assay on RXF 393 renal was 6.04 µM; in the assay with HL-60(TB) leukemia it was 4.73 µM; in the assay on SF-539 CNS, 21.2 µM; with OVCAR-4 ovarian it was above 100 µM.

Consider `COc1ccc(-c2cc(=O)c3ccc(O)cc3o2)c(OC)c1OC`, for which the TGI in the assay with K-562 leukemia is above 100 µM; with NCI-H226 lung, above 100 µM; with TK-10 renal it was above 100 µM; in the assay with SNB-75 CNS it was 71.4 µM; with SF-268 CNS, above 100 µM; with EKVX NSCLC, above 100 µM. The TGI is 91.8 µM with RXF 393 renal, above 100 µM in the assay with HL-60(TB) leukemia, above 100 µM in the assay with SF-539 CNS and above 100 µM in the assay on OVCAR-4 ovarian.

In the case of `O=C(Nc1ccc(F)cc1F)c1cc(I)ccc1O`, the GI50 was 3.16 µM in the assay on K-562 leukemia; 2.46 µM with NCI-H226 lung; 4.73 µM in the assay with TK-10 renal; 1.36 µM in the assay on SNB-75 CNS; 3 µM with SF-268 CNS; 2.19 µM in the assay with EKVX NSCLC. The GI50 in the assay on RXF 393 renal was 2.5 µM; in the assay with HL-60(TB) leukemia, 3.08 µM; with SF-539 CNS, 2.83 µM; with OVCAR-4 ovarian it was 2.49 µM. The TGI with K-562 leukemia is above 100 µM; in the assay with NCI-H226 lung it was 15.8 µM; in the assay on TK-10 renal it was 31.1 µM; in the assay on SNB-75 CNS, 4.58 µM; with SF-268 CNS it was 47.4 µM; in the assay with EKVX NSCLC, 9.14 µM. The figures for the TGI in the assay with RXF 393 renal, in the assay on HL-60(TB) leukemia and with SF-539 CNS were 7 µM, 9.13 µM and 10.2 µM, respectively.
